This is an account of results in ChEMBL document CHEMBL3751797, “Discovery of TRAF-2 and NCK-interacting kinase (TNIK) inhibitors by ligand-based virtual screening methods” (Medchemcomm, 2015).

Series [1] addresses T1, TRAF2 and NCK-interacting protein kinase (Homo sapiens, UniProt Q9UKE5). Description: Inhibition of recombinant TNIK (unknown origin) using LRRKtide as substrate at 10 uM after 1 hr in presence of 30 uM ATP.
Target sequence in this assay (Q9UKE5 whole entry, looked up): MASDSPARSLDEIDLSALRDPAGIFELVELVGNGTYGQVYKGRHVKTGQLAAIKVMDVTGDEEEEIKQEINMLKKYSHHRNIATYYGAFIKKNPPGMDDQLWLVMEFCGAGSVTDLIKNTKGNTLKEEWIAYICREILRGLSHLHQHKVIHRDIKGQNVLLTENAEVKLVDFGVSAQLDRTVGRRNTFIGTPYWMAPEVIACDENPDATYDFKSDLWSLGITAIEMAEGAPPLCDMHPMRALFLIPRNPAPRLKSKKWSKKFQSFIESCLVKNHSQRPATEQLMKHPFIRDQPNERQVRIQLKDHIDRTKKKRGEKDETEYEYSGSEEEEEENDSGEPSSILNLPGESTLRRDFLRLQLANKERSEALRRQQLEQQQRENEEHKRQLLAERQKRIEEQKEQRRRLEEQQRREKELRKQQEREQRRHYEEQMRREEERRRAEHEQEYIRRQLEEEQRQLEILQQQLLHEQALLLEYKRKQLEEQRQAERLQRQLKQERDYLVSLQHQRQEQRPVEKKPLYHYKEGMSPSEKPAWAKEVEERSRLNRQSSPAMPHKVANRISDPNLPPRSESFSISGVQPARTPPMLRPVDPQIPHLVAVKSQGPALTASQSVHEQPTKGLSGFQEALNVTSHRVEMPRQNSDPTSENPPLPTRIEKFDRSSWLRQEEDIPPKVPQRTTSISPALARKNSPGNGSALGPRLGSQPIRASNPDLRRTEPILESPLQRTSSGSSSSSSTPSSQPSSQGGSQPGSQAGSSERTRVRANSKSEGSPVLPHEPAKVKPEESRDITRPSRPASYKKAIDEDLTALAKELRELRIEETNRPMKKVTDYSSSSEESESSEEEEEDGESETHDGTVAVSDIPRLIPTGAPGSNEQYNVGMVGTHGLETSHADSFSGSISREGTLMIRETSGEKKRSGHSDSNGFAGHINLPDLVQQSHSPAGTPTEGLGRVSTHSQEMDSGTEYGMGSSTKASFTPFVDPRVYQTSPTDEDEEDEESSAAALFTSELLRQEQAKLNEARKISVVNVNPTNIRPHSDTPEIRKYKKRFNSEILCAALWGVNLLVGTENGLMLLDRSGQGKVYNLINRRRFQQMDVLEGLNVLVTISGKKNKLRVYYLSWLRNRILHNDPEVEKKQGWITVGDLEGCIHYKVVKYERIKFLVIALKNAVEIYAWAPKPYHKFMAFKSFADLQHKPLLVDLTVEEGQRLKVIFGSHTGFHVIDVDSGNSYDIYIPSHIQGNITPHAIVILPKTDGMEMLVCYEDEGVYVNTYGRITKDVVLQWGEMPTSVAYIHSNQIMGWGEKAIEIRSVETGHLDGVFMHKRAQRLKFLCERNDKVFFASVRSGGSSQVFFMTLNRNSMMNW
The target in series [2] is T1, TRAF2 and NCK-interacting protein kinase. Nature of the series: Inhibition of recombinant TNIK (unknown origin) using LRRKtide as substrate after 1 hr in presence of 30 uM ATP.
Target sequence in this assay (Q9UKE5 whole entry): as the sequence (Q9UKE5 whole entry, looked up) above
Series [3] has as its system NCI-H1703. Description: Cytotoxicity against human NCI-H1703 cells transfected with lentiviral vector 7TFP assessed as cell viability at 10 uM after 72 hrs by ATPlite assay. The format is cell-based. As to conditions: nci-h1703, 72 h. In general terms: Cellular ATP, detected with luciferase, serves as a proxy for viable cell number.
Series [4] has as its target T2, Aurora kinase A (Homo sapiens) (UniProt O14965).
T2 sequence (whole entry): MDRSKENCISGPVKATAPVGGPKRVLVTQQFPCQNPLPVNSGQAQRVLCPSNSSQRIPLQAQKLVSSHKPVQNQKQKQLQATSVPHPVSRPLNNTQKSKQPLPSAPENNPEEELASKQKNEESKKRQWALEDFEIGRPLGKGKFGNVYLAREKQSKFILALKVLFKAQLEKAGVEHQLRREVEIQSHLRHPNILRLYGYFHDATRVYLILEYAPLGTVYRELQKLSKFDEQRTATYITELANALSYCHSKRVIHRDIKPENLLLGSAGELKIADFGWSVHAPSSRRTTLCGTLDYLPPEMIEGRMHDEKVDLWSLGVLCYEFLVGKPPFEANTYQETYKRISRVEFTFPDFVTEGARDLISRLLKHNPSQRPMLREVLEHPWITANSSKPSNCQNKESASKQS
Description: Inhibition of human AURA using kemptide as substrate at 10 uM after 1 hr in presence of 30 uM ATP.

Series [5] deals with Vascular endothelial growth factor receptor 2 (Homo sapiens) (UniProt P35968). Description: Inhibition of human KDR using srctide as substrate at 10 uM after 1 hr in presence of 30 uM ATP.
For series [6], the target named is Tyrosine-protein kinase BTK (Homo sapiens) (UniProt Q06187). Nature of the series: Inhibition of human BTK using srctide as substrate at 10 uM after 1 hr in presence of 30 uM ATP.
The target of series [7] is Tyrosine-protein kinase JAK2 (Homo sapiens) (UniProt O60674). Nature of the series: Inhibition of human JAK2 using IGF-1Rtide as substrate at 10 uM after 1 hr in presence of 30 uM ATP.
Series [8] concerns the target T1, TRAF2 and NCK-interacting protein kinase. Description: Competitive inhibition of recombinant TNIK (unknown origin) using LRRKtide as substrate after 1 hr in presence of 3 uM ATP.
Target sequence in this assay (Q9UKE5 whole entry): as the sequence (Q9UKE5 whole entry, looked up) above
For series [9], the target named is Phosphatidylinositol 4,5-bisphosphate 3-kinase catalytic subunit alpha isoform (Homo sapiens) (UniProt P42336). Nature of the series: Inhibition of human PI3Kalpha using PIP2 as substrate at 10 uM after 1 hr in presence of 30 uM ATP.
Series [10] addresses Serine/threonine-protein kinase pim-1 (Homo sapiens) (UniProt P11309). Description: Inhibition of human PIM1 using S6K as substrate at 10 uM after 1 hr in presence of 30 uM ATP.
Series [11] has as its target Glycogen synthase kinase-3 (Homo sapiens) (UniProt P49840+P49841). Description: Inhibition of human GSK3 using GSM as substrate at 10 uM after 1.5 hrs in presence of 30 uM ATP. The format is protein assay.
The target in series [12] is Tyrosine-protein kinase SYK (Homo sapiens) (UniProt P43405). Nature of the series: Inhibition of human SYK using srctide as substrate at 10 uM after 1 hr in presence of 30 uM ATP.
Series [13] deals with Platelet-derived growth factor receptor beta (Homo sapiens) (UniProt P09619). Description: Inhibition of human PDGFRbeta using srctide as substrate at 10 uM after 1 hr in presence of 30 uM ATP.
The target in series [14] is Receptor-type tyrosine-protein kinase FLT3 (Homo sapiens) (UniProt P36888). Description: Inhibition of human FLT3 using srctide as substrate at 10 uM after 1 hr in presence of 30 uM ATP.
Series [15] has as its target Epidermal growth factor receptor (Homo sapiens) (UniProt P00533). Nature of the series: Inhibition of human EGFR using srctide as substrate at 10 uM after 1 hr in presence of 30 uM ATP.
Series [16] concerns the target Insulin-like growth factor 1 receptor (Homo sapiens) (UniProt P08069). Nature of the series: Inhibition of human IGF1R at 10 uM in presence of 30 uM ATP.
Series [17] has as its target Fibroblast growth factor receptor 2 (Homo sapiens) (UniProt P21802). Nature of the series: Inhibition of human FGFR2 using IGF-1Rtide as substrate at 10 uM after 1 hr in presence of 30 uM ATP.
For series [18], the target named is T1, TRAF2 and NCK-interacting protein kinase. Description: Competitive inhibition of recombinant TNIK (unknown origin) using LRRKtide as substrate after 1 hr in presence of 300 uM ATP.
Target sequence in this assay (Q9UKE5 whole entry): as the sequence (Q9UKE5 whole entry, looked up) above
Series [19] has as its target ALK tyrosine kinase receptor (Homo sapiens) (UniProt Q9UM73). Description: Inhibition of human ALK using IGF-1Rtide as substrate at 10 uM after 2 hrs in presence of 30 uM ATP.
Series [20] addresses Fibroblast growth factor receptor 1 (Homo sapiens) (UniProt P11362). Description: Inhibition of human FGFR1 using IGF-1Rtide as substrate at 10 uM after 1 hr in presence of 30 uM ATP.
The target of series [21] is T1, TRAF2 and NCK-interacting protein kinase. Description: Competitive inhibition of recombinant TNIK (unknown origin) using LRRKtide as substrate after 1 hr in presence of 30 uM ATP.
Target sequence in this assay (Q9UKE5 whole entry): as the sequence (Q9UKE5 whole entry, looked up) above

In general, inhibition refers to the relative decrease from the control value, in per cent. For orientation: IC50 means the point on the concentration scale where inhibition reaches its midpoint.

Sequence of Fibroblast growth factor receptor 2 (Homo sapiens) (P21802 22-821 limits assumed): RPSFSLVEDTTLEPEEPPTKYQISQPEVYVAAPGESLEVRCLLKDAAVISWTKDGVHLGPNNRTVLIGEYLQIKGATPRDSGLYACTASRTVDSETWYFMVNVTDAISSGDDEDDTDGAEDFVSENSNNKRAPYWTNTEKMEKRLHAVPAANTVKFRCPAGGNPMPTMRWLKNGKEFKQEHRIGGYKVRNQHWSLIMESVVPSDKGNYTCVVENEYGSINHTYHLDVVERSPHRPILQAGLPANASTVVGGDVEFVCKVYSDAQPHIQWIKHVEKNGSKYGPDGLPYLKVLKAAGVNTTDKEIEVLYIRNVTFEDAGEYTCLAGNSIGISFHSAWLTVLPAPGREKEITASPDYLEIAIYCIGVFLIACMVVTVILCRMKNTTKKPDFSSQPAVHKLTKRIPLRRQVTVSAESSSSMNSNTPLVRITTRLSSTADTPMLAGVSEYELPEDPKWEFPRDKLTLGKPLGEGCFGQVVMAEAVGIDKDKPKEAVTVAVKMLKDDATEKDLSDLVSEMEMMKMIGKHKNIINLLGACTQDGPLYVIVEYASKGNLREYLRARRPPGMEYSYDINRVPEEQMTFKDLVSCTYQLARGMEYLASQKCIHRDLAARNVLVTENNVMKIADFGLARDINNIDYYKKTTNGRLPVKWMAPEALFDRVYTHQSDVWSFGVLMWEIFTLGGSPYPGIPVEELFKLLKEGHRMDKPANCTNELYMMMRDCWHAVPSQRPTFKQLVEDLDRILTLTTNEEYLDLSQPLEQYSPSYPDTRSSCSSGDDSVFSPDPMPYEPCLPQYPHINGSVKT
Sequence of Epidermal growth factor receptor (Homo sapiens) (P00533 whole entry): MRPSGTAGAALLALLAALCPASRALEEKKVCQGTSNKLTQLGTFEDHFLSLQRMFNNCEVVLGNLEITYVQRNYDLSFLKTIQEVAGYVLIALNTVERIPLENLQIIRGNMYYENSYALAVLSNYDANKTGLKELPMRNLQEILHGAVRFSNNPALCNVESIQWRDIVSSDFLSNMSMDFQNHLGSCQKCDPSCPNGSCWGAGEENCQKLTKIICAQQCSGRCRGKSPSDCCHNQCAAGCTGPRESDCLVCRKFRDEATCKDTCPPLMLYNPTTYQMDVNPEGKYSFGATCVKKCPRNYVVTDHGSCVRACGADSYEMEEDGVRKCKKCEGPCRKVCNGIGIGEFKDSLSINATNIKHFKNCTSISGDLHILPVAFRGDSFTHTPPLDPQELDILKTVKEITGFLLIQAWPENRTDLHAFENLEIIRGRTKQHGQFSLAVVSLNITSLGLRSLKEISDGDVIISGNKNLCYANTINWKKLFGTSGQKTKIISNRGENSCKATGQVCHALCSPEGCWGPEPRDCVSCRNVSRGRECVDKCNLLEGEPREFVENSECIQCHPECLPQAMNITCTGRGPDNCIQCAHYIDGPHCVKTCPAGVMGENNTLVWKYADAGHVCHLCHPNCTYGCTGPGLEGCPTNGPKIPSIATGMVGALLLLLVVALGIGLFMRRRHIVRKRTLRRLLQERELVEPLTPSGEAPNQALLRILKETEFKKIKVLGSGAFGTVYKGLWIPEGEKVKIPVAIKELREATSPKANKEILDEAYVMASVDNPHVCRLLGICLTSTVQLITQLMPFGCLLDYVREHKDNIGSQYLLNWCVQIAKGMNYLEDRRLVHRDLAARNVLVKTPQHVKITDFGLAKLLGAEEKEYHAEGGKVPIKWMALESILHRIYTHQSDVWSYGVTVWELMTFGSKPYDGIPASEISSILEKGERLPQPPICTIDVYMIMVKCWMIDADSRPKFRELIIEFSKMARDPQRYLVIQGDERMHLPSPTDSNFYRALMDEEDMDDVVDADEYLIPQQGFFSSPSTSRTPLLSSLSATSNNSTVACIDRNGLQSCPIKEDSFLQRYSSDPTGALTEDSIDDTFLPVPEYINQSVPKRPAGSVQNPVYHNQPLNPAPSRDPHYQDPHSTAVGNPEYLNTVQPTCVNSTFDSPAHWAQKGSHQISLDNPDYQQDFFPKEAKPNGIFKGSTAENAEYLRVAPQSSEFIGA
Sequence of Vascular endothelial growth factor receptor 2 (Homo sapiens) (P35968 whole entry): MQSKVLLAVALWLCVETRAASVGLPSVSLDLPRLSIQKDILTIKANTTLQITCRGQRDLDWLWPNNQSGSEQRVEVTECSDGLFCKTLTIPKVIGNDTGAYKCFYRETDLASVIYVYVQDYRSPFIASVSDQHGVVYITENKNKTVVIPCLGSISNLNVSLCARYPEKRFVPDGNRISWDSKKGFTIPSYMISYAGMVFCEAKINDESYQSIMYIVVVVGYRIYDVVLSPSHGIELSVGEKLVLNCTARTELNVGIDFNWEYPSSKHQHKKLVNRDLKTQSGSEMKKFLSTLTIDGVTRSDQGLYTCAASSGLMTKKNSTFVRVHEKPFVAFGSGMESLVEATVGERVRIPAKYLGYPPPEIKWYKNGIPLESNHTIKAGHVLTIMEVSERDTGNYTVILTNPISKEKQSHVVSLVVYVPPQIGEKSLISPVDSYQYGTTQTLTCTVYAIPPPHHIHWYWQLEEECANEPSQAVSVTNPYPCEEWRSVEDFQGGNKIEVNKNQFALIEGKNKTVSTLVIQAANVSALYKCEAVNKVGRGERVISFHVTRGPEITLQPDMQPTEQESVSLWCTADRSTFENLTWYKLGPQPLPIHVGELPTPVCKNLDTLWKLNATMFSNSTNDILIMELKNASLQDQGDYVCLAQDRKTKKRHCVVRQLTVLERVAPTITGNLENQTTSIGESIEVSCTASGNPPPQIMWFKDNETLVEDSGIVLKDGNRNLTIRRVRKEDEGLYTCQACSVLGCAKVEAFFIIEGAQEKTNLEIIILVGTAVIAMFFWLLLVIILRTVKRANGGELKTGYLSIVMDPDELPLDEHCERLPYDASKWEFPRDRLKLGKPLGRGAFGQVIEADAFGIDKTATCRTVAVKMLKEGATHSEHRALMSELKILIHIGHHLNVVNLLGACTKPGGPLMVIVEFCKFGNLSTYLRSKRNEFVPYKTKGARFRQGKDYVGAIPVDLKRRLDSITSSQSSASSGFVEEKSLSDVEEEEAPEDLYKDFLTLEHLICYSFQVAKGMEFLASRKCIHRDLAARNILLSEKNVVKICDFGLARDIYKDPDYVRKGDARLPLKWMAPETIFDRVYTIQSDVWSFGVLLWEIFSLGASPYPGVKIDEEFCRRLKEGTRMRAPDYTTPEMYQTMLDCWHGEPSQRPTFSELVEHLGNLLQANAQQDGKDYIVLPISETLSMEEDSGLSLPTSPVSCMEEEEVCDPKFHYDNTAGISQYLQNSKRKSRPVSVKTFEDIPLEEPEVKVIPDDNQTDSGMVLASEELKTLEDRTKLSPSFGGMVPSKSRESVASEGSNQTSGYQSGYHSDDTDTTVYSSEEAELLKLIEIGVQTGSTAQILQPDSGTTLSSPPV

As for `Cc1cc([N+](=O)[O-])ccc1-c1ccc(C(=O)Nc2cccc(Cl)c2N2CCOCC2)o1`, in [1], the inhibition was determined as 22.3%.
Regarding `O=C(Nc1nnc(/C=C/c2ccccc2)s1)c1ccco1`, in [2], the half-maximal inhibitory concentration (IC50) is 3.57 µM. Further, in [1], the inhibition turned out to be 70%.
On to `O=C(Nc1cccc(NC(=O)c2ccc(Cl)cc2Cl)c1)c1ccc(-c2cccc([N+](=O)[O-])c2)o1`, for which the inhibition in series [1] came out at 16.8%.
Same read-out and setting: as for `O=C(NNC(=O)c1cc2ccccc2cc1O)NC1CCCCC1`, the figure is 42%.
As to `CC[C@@H]1CCc2c(sc(NC(=O)Nc3ccccc3)c2C(N)=O)C1`, the IC50 in series [2] amounted to 10.3 µM. In addition, the inhibition in series [1] came out at 79%.
As for `CN(C)c1ccc(NC(=O)c2cc3ccccc3o2)cc1`, the inhibition in series [1] amounted to 39%.
Still for that read-out and setting: then `CNS(=O)(=O)c1ccc(NC(=O)c2cc(C)c(-c3ccccc3)s2)cc1`, with 72.8%; and `COc1ccc(C(=O)/C=C/Nc2ccc(C)c(C)c2)cc1`, with 32%.
In the case of `CC(C)(C)c1ccc(/C=C/C(=O)Nc2ccccc2C(N)=O)cc1`, the IC50 in series [2] is 2.74 µM. Further, in series [1], the inhibition was 63%.
Turning to `O=C(Nc1ccccc1Cl)c1ccc(-c2ccc(Cl)cc2)o1`, in series [1], the inhibition stood at 18.7%.
Consider `CN1CCN(c2ccc3nc(-c4c(N)c5c(F)cccc5[nH]c4=O)[nH]c3c2)CC1` [DOVITINIB], for which the Activity result in series [3] is “Toxic”.
Take `O=C(Nc1cc(Cl)cc(Cl)c1)c1ccc(-c2ccc([N+](=O)[O-])cc2)o1`: in series [1], the inhibition amounted to 8.9%.
The same measure, in the same setting: then `CC(=O)Nc1ccc(NC(=O)c2ccc(-c3ccc(Cl)c(Cl)c3)o2)cc1`, with 23.1%; and `Cc1cc(C(=O)Nc2ccc(C(=O)N3CCOCC3)cc2)sc1-c1ccccc1`, with 60.4%; and `Cc1ccccc1C(=O)N1CCN(c2ccc(NC(=O)c3ccc(-c4ccc(Cl)cc4)o3)cc2)CC1`, with 12.9%.
Turning to `O=C(Nc1ccc(Br)cc1)Nc1ccc(CN2CCCC2)cc1`, the IC50 in series [2] was determined as 3.51 µM. Further, the inhibition in series [1] amounted to 72%.
Consider `Cc1cc(C(=O)Nc2ccccc2C(N)=O)sc1-c1ccccc1`, for which the inhibition in [1] was 61.7%.
Turning to `Cc1ccc(NC=C2C(=O)c3ccccc3C2=O)cc1C`, the inhibition in [1] came to 43%.
With `Cc1cc(C(=O)Nc2cccc(S(=O)(=O)N3CCOCC3)c2)sc1-c1ccccc1`, the inhibition in series [1] is -4.9%.
The same measure, in the same setting: as for `Cc1ccc(-c2cc(C(=O)Nc3ccncc3)no2)cc1`, the figure is 40%.
For `CN1CCN(c2ccc(NC(=O)c3ccc(-c4cc(Cl)ccc4Cl)o3)cc2)CC1`, the inhibition in series [4] was 19.5%; in series [5], 64.9%; in series [6], 4.3%; in [7], 3.5%; in series [9], 11.7%; in [10] it was 46.9%. Further, the inhibition is 20.7% in series [11]; 34.9% in series [12]; 75.7% in [13]; 93.8% in series [14]; 9.3% in series [15]; 3.4% in [16]. Besides, the inhibition in [17] turned out to be 54.8%; in [19] it was 17.4%; in series [20] it was 21.6%; in [1], 94%. Also, the Activity entry in series [3] is “Non-toxic”. For the same compound, the half-inhibitory concentration (IC50) in series [8] came out at 0.394 µM; in series [2] it was 0.85 µM; in series [18], 6.18 µM; in [21], 0.849 µM.
Turning to `CN1CCN(c2ccc(NC(=O)c3cccc(Cl)c3)cc2)CC1`, the inhibition in series [1] was 45%.
Consider `O=C1[C@H](Cc2ccc(O)cc2)N2C(=O)CCN(C(=O)NCc3ccccc3)[C@H]2CN1Cc1cccc2ccccc12`, for which the Activity entry in series [3] is on record as “Non-toxic”.
In the case of `CC(C)C(=O)Nc1cccc(NC(=O)c2ccc(-c3ccc(Cl)cc3)o2)c1`, the inhibition in series [1] was 4.1%.
Same read-out and setting: then `CCC(=O)N1CCN(c2ccc(NC(=O)c3cc4ccccc4o3)cc2)CC1`, with 46%; and `Cc1cc([N+](=O)[O-])ccc1NC(=O)c1ccc(-c2cccc(Cl)c2Cl)o1`, with 4.9%.
With `Cc1c(Cl)cccc1-c1ccc(C(=O)Nc2ccc(S(N)(=O)=O)cc2)o1`, the inhibition in series [4] was 17.4%; in series [5], 0.1%; in [6], -2.3%; in [7] it was 23.7%; in [10], 24%; in series [11] it was 17.3%. Further, the inhibition in series [12] is 15.3%; in series [13] it was 13.8%; in [14], 27%; in series [15] it was 51.7%; in series [16], 7.7%; in series [17], 32.4%. Further, the inhibition in [19] amounted to 18.4%; in series [20] it was 5.2%; in series [1] it was 76.4%. For the same compound, the Activity result in series [3] is reported as “Non-toxic”. The IC50 in [2] amounted to 0.26 µM.
